The subject of data set [1] is type 1 collagen biosynthesis in fibroblasts. Put plainly: Type 1 collagen biosynthesis-promoting ability, ELISA of fibroblast culture supernatants. In kind it is cell-based. As to conditions: supernatants of human dermal fibroblasts; dilutions of 200 uM, 20 uM and 2 uM, each 100 ul added to 100 ul medium; incubation 48 hours; FIG. 2.
Experimental: The type 1 collagen produced was measured by ELISA assay to examine the effect of promoting collagen biosynthesis, and a control group with no sample added was considered as 100% to calculate the relative type 1 collagen production ability.
Thereafter, fibroblast culture supernatants described in Example 2 were treated to the 96-well plate coated with type 1 collagen antibodies, and reacted at room temperature for 2 hours. […] Reaction was stopped using 2 N hydrochloric acid, and absorbance was measured at 450 nm.
Data set [2] has as its system Human normal fibroblasts (Human Dermal Fibroblast neonatal). Description: Cytotoxicity test by MTT assay. As to conditions: dilutions of 200 uM, 20 uM and 2 uM, each 100 ul added to 100 ul medium, incubation 48 hours, FIG. 1. In kind it is cell-based. As to the method: In order to examine cytotoxicity of the biotin-conjugated hexapeptide-2 peptide synthesized in Example 1, the following experiment was performed. Cytotoxicity was examined by MTT assay, and a control group with no sample added was considered as 100% to calculate relative cytotoxicity. The detailed experimental method is as follows. Human normal fibroblasts (Human Dermal Fibroblast neonatal) were seeded in a 96-well plate for cell culture at a density of 3,000 cells per well, and cultured in 10% FBS (Fetal bovine serum)-containing DMEM (Dulbecco's Modified Eagle Media, Gibco BRL) in a 37° C., 5% CO2 incubator for 24 hours. Each test material was dissolved in water at a concentration of 10 mM to prepare concentrates, and the concentrates were diluted with 0.5% FBS-containing DMEM at a concentration of 200 uM, 20 uM, and 2 uM. Then, each 100 ul of the diluted solutions was added to each well previously containing 100 ul of the medium, followed by incubation for 48 hours. After completing the cultivation, the supernatants were used to determine the amount of type 1 collagen produced (Example 3), and the cells were used to determine cytotoxicity. […] Thereafter, the supernatant was carefully removed, and MTT formazan precipitates in the cells were dissolved in 100 ul of DMSO to determine absorbance at OD570 using an ELISA reader.
(In general: Tetrazolium dyes change colour on reduction, which living cells bring about.)

Where a SMILES comes first, the peptide text is derived from it. [ ]: non-standard residue; d: D form. The star is where a group is joined. ξ: configuration not given here. Biotin = O=C1N[C@H]2[C@H](CS[C@H]2CCCCC(=O)*)N1; ξW = NC(Cc1c[nH]c2ccccc12)C(=O)O; ξH = NC(Cc1c[nH]cn1)C(=O)O; ξF = NC(Cc1ccccc1)C(=O)O; ξK = NCCCCC(N)C(=O)O; ξA = CC(N)C(=O)O

In the case of `CC(NC(=O)C(Cc1c[nH]c2ccccc12)NC(=O)C(Cc1c[nH]cn1)NC(=O)CCCC[C@@H]1SC[C@@H]2NC(=O)N[C@@H]21)C(=O)NC(Cc1c[nH]c2ccccc12)C(=O)NC(Cc1ccccc1)C(=O)NC(CCCCN)C(N)=O` (stereo partly drawn) [biotin-conjugated hexapeptide-2] (Biotin-[ξH][ξW][ξA][ξW][ξF][ξK]-NH2), the “type 1 collagen biosynthesis (ELISA, relative to control group with no sample added = 100%)” value in data set [1] is recorded as “significant increase”.

As to `O=C(O)CCCC[C@@H]1SC[C@@H]2NC(=O)N[C@@H]21` [biotin], the “type 1 collagen biosynthesis (ELISA, relative to control group with no sample added = 100%)” value in data set [1] is given as “no increase”.

Consider `C[C@H](NC(=O)[C@@H](Cc1c[nH]c2ccccc12)NC(=O)[C@@H](N)Cc1c[nH]cn1)C(=O)N[C@@H](Cc1c[nH]c2ccccc12)C(=O)N[C@H](Cc1ccccc1)C(=O)N[C@@H](CCCCN)C(N)=O` [hexapeptide-2, His-D-Trp-Ala-Trp-D-Phe-Lys-NH2] (H-H[dW]AW[dF]K-NH2), for which the “cytotoxicity (MTT assay, relative to control group with no sample added = 100%)” value in data set [2] is recorded as “no cytotoxicity”.
